pIC50: −log10 of the molar value. Entries after “also recorded” stand apart in the source; their conditions may differ.
Tests used:
LXRβ = biological target: T1, LXRβ (Homo sapiens, UniProt P55055); experiment: GAL4-LXRβ / UAS-luc transfection assay in mouse primary hepatocytes
T1 sequence (P55055 222-460 limits assumed): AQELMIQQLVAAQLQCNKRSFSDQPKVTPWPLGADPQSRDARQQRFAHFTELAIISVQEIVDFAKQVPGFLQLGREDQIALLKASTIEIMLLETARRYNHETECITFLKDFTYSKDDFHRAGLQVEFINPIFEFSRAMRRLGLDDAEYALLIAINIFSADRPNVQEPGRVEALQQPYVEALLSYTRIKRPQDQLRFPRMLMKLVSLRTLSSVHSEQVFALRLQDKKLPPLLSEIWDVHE
From the text: (§1) RLU=relative luciferase units.

IL-1β = IL-1β gene expression in LPS activated mouse primary macrophages (RT-QPCR); assay type: cell-based
Procedure: (§2) The expression of genes involved in immune response IL-1β, IL-6 and GILZ was measured following an overnight treatment with Dex 100 nM, 250 nM T0901317 (T09), and/or 10 μM GSK2033 in LPS activated WT, LXR α −/− and LXRβ −/− mouse primary macrophages, by RT-QPCR. Data represent the Avg±SD, N=3. *P<0.05 by One way ANOVA, Student Newman Keuls.
(§3) To assess the ability of GSK2033 to affect GR-mediated inflammatory suppression, a number of gene expression studies were conducted on primary macrophages isolated from WT, LXRα−/− and LXRβ−/− mice. Cells were pre-treated with 10 ng/ml lipopolysaccharide (LPS) for 6 hrs (to induce a potent inflammatory response) followed by treatment of 100 nM Dex, 10 μM GSK2033 and/or 250 nM T09 for 18 hrs.

IL-6 = IL-6 gene expression in LPS activated mouse primary macrophages (RT-QPCR); assay type: cell-based
Procedure: as §2, §3

GILZ = GILZ gene expression in LPS activated mouse primary macrophages (RT-QPCR); assay type: cell-based; settings: 100 nM Dex + 10 μM GSK2033, 18 hrs
Procedure: as §2, §3

[1] = test system: tyrosine aminotransferase (TAT); experiment: TAT gene expression in mouse primary hepatocytes; assay type: cell-based; settings: WT, LXRα−/− and LXRβ−/− hepatocytes; 100 nM Dex + 10 μM GSK2033
Procedure: T09 treatment was used as a positive control for LXR activity. (D) Glucose output over 24 hrs from LXRα−/− and LXRβ−/− mouse primary hepatocytes following Dex 100 nM±10 μM GSK2033 treatment. (E) Glucose output over 8 hrs from WT hepatocytes following Dex 500 nM±10 μM GSK2033 treatments. […] Legend: V=vehicle, G=GSK2033 (LXR antagonist); D=dexamethasone (GR agonist); and T09=T0901317 (LXR agonist).

Srebp-1c = Srebp-1c gene expression in mouse primary hepatocytes; assay type: cell-based; settings: WT, LXRα−/− and LXRβ−/− hepatocytes; 250 nM T09 + 10 μM GSK2033
LXRα−/− mice = experiment: In vivo 5 day Dex ± GSK2033 co-treatment study; parameters: species or system mouse
Procedure: LXRα−/− mice were treated with Vehicle (Veh), Dex (2.5 mg/kg) b.i.d. or GSK2033 40 mg/kg (once a day) along with Dex b.i.d. for 5 days. (A) Plasma glucose levels were measured by a colorimetric kit (Wako). (B) Spleen weights were measured at the time of sacrifice, and are presented normalized to body weight. (C) Liver Pepck, FOXO1, Pgc 1α, FGF21, GR and LXRβ gene expression measured by QPCR. Data represent the Avg±SEM, N=2-5. *P<0.05 by One way ANOVA, Student Newman Keuls.
Having observed promising results with GSK2033 co-treatment with Dex in-vitro (GSK2033-mediated suppression of GC-induced gluconeogenic side effects without affecting desirable immune suppression); a study was conducted, in which whole body LXRα−/− mice were treated with vehicle (Veh), 2.5 mg/kg bid (subcutaneous injection) Dex or Dex+40 mg/kg GSK2033 (once a day intraperitoneal injection) for 5 days, and sacrificed at lights on.

LXRα [2] = biological target: T2, LXRα (Homo sapiens, UniProt Q13133); experiment: cell-based
T2 sequence (Q13133 209-447 limits assumed): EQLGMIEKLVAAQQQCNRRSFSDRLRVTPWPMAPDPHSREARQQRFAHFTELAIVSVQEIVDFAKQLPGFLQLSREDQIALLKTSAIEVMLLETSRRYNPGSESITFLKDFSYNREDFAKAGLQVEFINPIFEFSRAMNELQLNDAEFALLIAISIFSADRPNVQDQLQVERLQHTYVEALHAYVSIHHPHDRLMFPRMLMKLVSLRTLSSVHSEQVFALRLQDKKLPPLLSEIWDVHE

G6Pc = G6Pc gene expression in mouse primary hepatocytes; settings: LXRα−/− hepatocytes
LXRα [3] = biological target: T2, LXRα; experiment: GAL4-LXRα / UAS-luc transfection assay in mouse primary hepatocytes
GR = biological target: T3, GR (Homo sapiens, UniProt P04150); experiment: GAL4-GR / UAS-luc transfection assay in mouse primary hepatocytes; assay type: cell-based; parameters: co-transfecting UAS-reporter and GAL4-LBD of the nuclear receptors LXRα, LXRβ and GR; GAL4 (fusion partner); expressed in transfected cells; host or cells: mouse primary hepatocytes; settings: GAL4-GR activated with 100 nM Dex
T3 sequence (P04150 524-758 limits assumed): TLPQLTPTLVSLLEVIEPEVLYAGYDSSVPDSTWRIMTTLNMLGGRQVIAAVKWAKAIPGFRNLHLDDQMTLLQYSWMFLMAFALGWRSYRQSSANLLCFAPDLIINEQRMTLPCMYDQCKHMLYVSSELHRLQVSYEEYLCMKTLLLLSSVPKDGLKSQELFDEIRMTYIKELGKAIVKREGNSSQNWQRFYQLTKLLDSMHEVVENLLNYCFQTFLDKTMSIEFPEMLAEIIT
From the text: as §1

[4] = LPS activated macrophages, 250 nM T09 + 10 μM GSK2033
[5] = WT, LXRα−/− and LXRβ−/− macrophages, LPS 10 ng/ml 6 hrs, 100 nM Dex + 10 μM GSK2033, 18 hrs
[6] = across the treatment groups (Veh, Dex, Dex+GSK2033)

Structure (SMILES): Cc1cc(C)c(S(=O)(=O)N(Cc2ccc(-c3cccc(S(C)(=O)=O)c3)cc2)Cc2ccc(C(F)(F)F)o2)c(C)c1 [GSK2033, 2,4,6-trimethyl-N-((3′-(methylsulfonyl)-[1,1′-biphenyl]-4-yl)methyl)-N-((5-(trifluoromethyl)furan-2-yl)methyl)benzenesulfonamide]
- pIC50 (LXRβ): 6.53
- right-shift of LXRβ IC50, primary hepatocytes vs HEK293 (LXRβ): ~10 fold
- selectivity for LXRβ vs. LXRα (LXRβ; in hepatocytes): 2.5 fold
- T09 mediated suppression of IL-1β under GSK2033 co-treatment (IL-1β; [4]): antagonized
- Dex-mediated IL-1β repression under GSK2033 co-treatment (IL-1β; [5]): unaffected
- T09 mediated suppression of IL-6 under GSK2033 co-treatment (IL-6; [4]): antagonized
- Dex-mediated IL-6 repression under GSK2033 co-treatment (IL-6; [5]): unaffected
- GR-mediated induction of GILZ under GSK2033 co-treatment (GILZ): unaffected
- Dex induction of TAT under GSK2033 co-treatment [1]: not altered
- T09 induction of Srebp-1c under GSK2033 co-treatment (Srebp-1c): significantly decreased
- spleen size (weight normalized to body weight) (LXRα−/− mice; Dex 2.5 mg/kg bid + GSK2033 40 mg/kg, 5 days, vs Veh): significantly smaller
- liver FOXO 1 gene induction (LXRα−/− mice; Dex+GSK2033 group): normalized
- liver Pepck gene induction (LXRα−/− mice; Dex+GSK2033 group): normalized
- liver GR gene expression (LXRα−/− mice; [6]): did not change
- liver LXR gene expression (LXRα−/− mice; [6]): did not change
- pIC50 (LXRα [2]): 6.18
- G6Pc expression (G6Pc; Example 6, 100 nM Dex + 10 μM GSK2033): 4.9 fold
- G6Pc expression (G6Pc; Example 6, 10 μM Cortisol + 10 μM GSK2033): 7.5 fold
- G6Pc expression (G6Pc; Example 6, 10 μM Prednisone + 10 μM GSK2033): 9.8 fold
- G6Pc expression (G6Pc; Example 6, 10 μM Triamcinolone acetonide + 10 μM GSK2033): 8.6 fold
- G6Pc expression (G6Pc; Example 8, 100 nM Dex + 10 μM LXR antagonist): 5.3 fold
- right-shift of LXRα IC50, primary hepatocytes vs HEK293 (LXRα [3]): ~10 fold
- GR activity (GR): unaffected; also recorded: did not antagonize
